In US12258331B2, “Pyrimidine derivative and preparation process and use thereof” (Guangdong Lewwin Pharmaceutical Research Institute Co., Ltd., priority 2018, dated 2025):

What was measured:
[1] = Pharmacokinetic properties after intravenous injection and intragastric administration; assay type: in vivo, mice
Experimental: Shanghai Medicilon Bio-pharmaceutical Co., LTD was commissioned to research pharmacokinetic properties of the novel pyrimidine derivatives (R)-14, (R)-5b, and Tepotinib in mice. The specific processes are: An appropriate amount of the compounds (R)-14, (R)-5b and Tepotinib were accurately weighed and dissolved in a solution containing 2% Solutol and 98% 100 mM sodium acetate to obtain a clear dosing solution at a concentration of 2 mg/mL for intravenous administration. An appropriate amount of the compounds (R)-14, (R)-5b were accurately weighed and dissolved in 5% Solutol and 95% saline to obtain a clear dosing solution at a concentration of 5 mg/mL. An appropriate amount of Tepotinib was accurately weighed and dissolved in 5% Solutol, 5% DMSO and 90% saline, for oral administration and injection. Blood was collected from the test […] via jugular vein puncture, about 0.3 mL for per sample, and using heparin sodium as the anticoagulant. The time points for blood sampling were as below (including intravenous injection and oral administration): before administration, 5 min, 15 min, 30 min, 1 h, 2 h, 4 h, 8 h and 24 h post administration. After collection, blood samples were placed on ice, and plasma was separated by centrifugation within 30 minutes (centrifugation conditions: 8000 rpm, 6 minutes, 2-8° C.). The collected plasma was stored at −80° C. before analysis. Plasma samples were all analyzed qualitatively and quantitatively by LC-MS/MS. The dosage and ways for administration were intravenous injection (IV, 2 mg/kg) and intragastric administration (PO, 5 mg/kg) respectively, with the pharmacokinetic data shown in Table 3.

[2] = Metabolic stability in rat liver microsomes; settings: 37° C.
Experimental: Firstly, a SD rat (200-300 g) was fasted for 12 hours, and then infused rapidly with normal saline. Liver was taken out from the rat, from which liver microsomes were extracted at 0-4° C., ready for use after calibrating the concentration of liver microsomes. At 37° C., liver microsomes were incubated in combination with a certain concentration of compounds and auxiliary reagents for a period of time. The reaction was then quenched with acetonitrile.

[3] = Sprague-Dawley, mouse, in vivo, iv, 2 mg/kg
[4] = Sprague-Dawley, mouse, in vivo, po, 5 mg/kg

Row | AUC0-∞ [1, 3] [ng·h/mL] | CL [1, 3] [mL/min/kg] | T1/2 [1, 3] [h] | AUC0-∞ [1, 4] [ng·h/mL] | Tmax [1, 4] [h] | T1/2 (metabolic half-life in liver microsomes) [2] [h] | AUC0-∞ ([1]; IV 2 mg/kg) [ng·h/mL] | CL ([1]; IV 2 mg/kg) [mL/min/kg] | T1/2 ([1]; IV 2 mg/kg) [h] | Vz ([1]; IV 2 mg/kg) [L/kg] | AUC0-∞ ([1]; PO 5 mg/kg) [ng·h/mL] | Cmax ([1]; PO 5 mg/kg) [ng/mL] | Tmax ([1]; PO 5 mg/kg) [h] | F % (bioavailability) ([1]; PO 5 mg/kg vs IV 2 mg/kg) [%] | SMILES
1 | 2441.64 | 13.652 | 4.48 | 6309.37 | 4 | – | – | – | – | – | – | – | – | – | [2H]C([2H])([2H])C([2H])(c1cccc(-c2ncc(OCC3CCN(C)CC3)cn2)c1)n1nc(-c2cccc(C#N)c2)ccc1=O (stereo in doubt) [(R)-14]
2 | 2143.91 | 15.548 | 4.23 | 4580.23 | – | – | – | – | – | – | – | – | – | – | C[C@H](c1cccc(-c2ncc(OCC3CCN(C)CC3)cn2)c1)n1nc(-c2cccc(C#N)c2)ccc1=O [(R)-5b]
3 | – | – | – | – | – | 0.345 | 562.74 | 59.2338 | 1.79 | 9.17868 | 981.69 | 211.23 | 1 | 67.77 | CN1CCC(COc2cnc(-c3cccc(Cn4nc(-c5cccc(C#N)c5)ccc4=O)c3)nc2)CC1 [Tepotinib]
